Source: patent US10881642B2, “Autophagy enhancer and use thereof” (Industry-Academic Cooperation Foundation, Yonsei University, priority 2016, dated 2021)

Test system: ob/ob mice
Experiment: In vivo autophagic flux and TFEB-related gene expression in liver
Method: FIG. 7A is the result of the experiment in which ob/ob mice were peritoneally injected with 30 mg/kg leupeptin and then after 1 hr, vehicle control or MSL compound were peritoneally administered. Three hours post administration, the liver lysates were prepared and immunoblotted. The numbers above the bands indicates fold changes normalized to beta actin bands. FIG. 7B indicates the concentration of mRNA of TFEB related genes measured by performing RT-PCT using a total RNA isolated from liver sample treated same as above except that Leupeptin was not administered. The values represent mean±S.D of fold changes compared to control mice (vehicle control) obtained from three mice.
Screening of autophagy enhancer. […] Luciferase assay. Firefly and Renilla luciferase assays were conducted using the Dual-Luciferase Reporter Assay System (Promega) according to the manufacturer's recommendation. In brief, cells were lysed in 1× lysis buffer and subjected to a single round of freezing/thawing. Firefly luciferase was determined after mixing 5 μl of lysate with 25 μl of Luciferase Assay Reagent II. Renilla luciferase was then determined after further addition of 20 ul of Stop&Glo Reagent. Cell culture and media and drugs treatment. […] Cytotoxicity was determined by the measurement of LDH release in cell culture media using the LDH kit (Roche), according to the protocol from the manufacturer. […] Imaging and image quantification. […] Formation of acidic vesicular organelles was quantitated by staining the cells with acridine orange (Invitrogen, 5 ug/ml, 10 min). […] Cells or tissues were solubilized in lysis buffer supplemented with protease and phosphatase inhibitors and protein concentration was measured by the Bradford method. Ten to 30 micrograms were loaded on 4-12% Bis-Tris gel (NUPAGE, Invitrogen) or 8-15% SDS-PAGE, transferred to PVDF membranes and analyzed by western blot using the ECL method (Pierce). […] Protein levels were quantified by using ImageJ software analysis. […]

CSc1oc(-c2ccccc2)nc1S(=O)(=O)c1ccc(F)cc1 [MSL]
autophagic activity in the liver measured after leupeptin administration (after 8 weeks of administration): increased | LC3-I to -II conversion in the liver (after pretreatment with leupeptin): increased | expression of TFEB-regulated genes (liver, compared to controls): significantly higher
